Results published in PMC9939733 (The Journal of Biological Chemistry, 2023).
Where a chain is given by its changes, count along the chain named.

Experiments:
Format in all cases: biochemical
R172K IDH2 [1] = target: T1, R172K IDH2 (Homo sapiens, UniProt P48735, R172K); assay: Absorbance assay (NADPH consumption), substrate turnover in the absence of 2OG
T1 construct: made in house; host or cells: Sf21 insect cells (cell pellets prepared at Evotec)
T1 sequence (P48735 40-452 R172K): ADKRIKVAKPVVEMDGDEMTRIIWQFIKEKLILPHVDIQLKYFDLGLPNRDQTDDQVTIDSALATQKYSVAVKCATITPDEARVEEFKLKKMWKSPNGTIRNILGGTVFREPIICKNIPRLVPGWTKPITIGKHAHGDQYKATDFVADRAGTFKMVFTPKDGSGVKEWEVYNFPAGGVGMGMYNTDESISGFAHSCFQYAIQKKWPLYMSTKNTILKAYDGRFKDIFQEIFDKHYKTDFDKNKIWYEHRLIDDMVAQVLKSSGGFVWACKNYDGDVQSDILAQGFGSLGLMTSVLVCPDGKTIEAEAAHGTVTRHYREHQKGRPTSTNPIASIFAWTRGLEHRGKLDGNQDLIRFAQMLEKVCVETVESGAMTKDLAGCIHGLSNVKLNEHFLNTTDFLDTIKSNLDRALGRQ
Experimental: (§1) Compounds were dispensed using a CyBio SDW-CW CyBi-Well Simultaneous Pipettor and assay started using a ThermoFisher Multidrop Combi reagent dispenser.
(§2) Reactions were performed as technical quadruplicates.

R172K IDH2 [2] = target: T1, R172K IDH2; assay: Absorbance assay, variant activity in the presence of equimolar 2OG (inhibition screen)
Experimental: as §1, §2

WT IDH1 [3] = target: T2, WT IDH1 (Homo sapiens, UniProt O75874); assay: Absorbance assay, WT activity in the presence of equimolar DL-isocitrate (inhibition)
T2 construct: made in house; host or cells: Escherichia coli BL21(DE3) pLyS
Experimental: as §1, §2

WT IDH2 [4] = target: T3, WT IDH2 (Homo sapiens, UniProt P48735); assay: as above; details: […] isocitrate and […] test compound, 75 μM NADP+, 2.0 nM WT IDH2
T3 construct: made in house; host or cells: Sf21 insect cells (cell pellets prepared at Evotec)
T3 sequence (P48735 40-452): T1 sequence (P48735 40-452 R172K) with K133R
Experimental: as §1, §2

R132H IDH1 [5] = target: T4, R132H IDH1 (Homo sapiens, UniProt O75874, R132H); assay: Absorbance assay (NADPH consumption), substrate turnover in the absence of 2OG; design: made in house; host or cells: Escherichia coli BL21(DE3) pLyS
Experimental: as §1, §2

R132H IDH1 [6] = target: T4, R132H IDH1; assay: Absorbance assay, variant activity in the presence of equimolar 2OG (inhibition screen); design: made in house; host or cells: Escherichia coli BL21(DE3) pLyS
Experimental: as §1, §2

R140Q IDH2 [7] = target: T5, R140Q IDH2 (Homo sapiens, UniProt P48735, R140Q); assay: Absorbance assay (NADPH consumption), substrate turnover in the absence of 2OG
T5 construct: made in house; host or cells: Sf21 insect cells (cell pellets prepared at Evotec)
T5 sequence (P48735 40-452 R140Q): T1 sequence (P48735 40-452 R172K) with R101Q, K133R
Experimental: as §1, §2

R140Q IDH2 [8] = target: T5, R140Q IDH2; assay: Absorbance assay, variant activity in the presence of equimolar 2OG (inhibition screen)
Experimental: as §1, §2

WT IDH1 [9] = target: T2, WT IDH1; assay: Absorbance assay, substrate activity in the absence of DL-isocitrate; details: no DL-isocitrate; […] test compound, 75 μM NADP+, 2.0 nM WT IDH1; compared to DL-isocitrate
Experimental: as §1, §2

WT IDH2 [10] = target: T3, WT IDH2; assay: as above; details: no DL-isocitrate; […] test compound, 75 μM NADP+, 2.0 nM WT IDH2; compared to DL-isocitrate
Experimental: as §1, §2

[11] = no 2OG, 1.0 mM test compound, 0.03 μM R172K IDH2, 50 μM NADPH, 2OG = 100
[12] = 1.0 mM 2OG and 1.0 mM test compound, 0.03 μM R172K IDH2, 50 μM NADPH
[13] = […] isocitrate and […] test compound, 75 μM NADP+, 2.0 nM WT IDH1
[14] = no 2OG, […] test compound, 0.03 μM R132H IDH1, 50 μM NADPH, 2OG = 100
[15] = […] 2OG and […] test compound, 0.03 μM R132H IDH1, 50 μM NADPH
[16] = no 2OG, 6.0 mM test compound, 0.03 μM R140Q IDH2, 50 μM NADPH, 2OG = 100
[17] = 6.0 mM 2OG and 6.0 mM test compound, 0.03 μM R140Q IDH2, 50 μM NADPH

T2 sequence (O75874 whole entry): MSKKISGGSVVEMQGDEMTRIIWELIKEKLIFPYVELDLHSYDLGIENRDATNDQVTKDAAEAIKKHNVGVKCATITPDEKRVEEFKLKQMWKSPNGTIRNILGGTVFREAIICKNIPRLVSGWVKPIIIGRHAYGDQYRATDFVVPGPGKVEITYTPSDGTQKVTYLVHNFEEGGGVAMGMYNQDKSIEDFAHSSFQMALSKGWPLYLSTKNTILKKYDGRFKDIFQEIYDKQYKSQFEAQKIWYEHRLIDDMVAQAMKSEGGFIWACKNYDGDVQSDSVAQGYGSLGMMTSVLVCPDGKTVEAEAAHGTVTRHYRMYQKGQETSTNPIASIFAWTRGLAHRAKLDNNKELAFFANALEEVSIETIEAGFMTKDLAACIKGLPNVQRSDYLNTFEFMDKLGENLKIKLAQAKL
T4 sequence (O75874 whole entry R132H): as the sequence (O75874 whole entry) above, with R132H counted along it

Row | Compound | activity [%] (%-substrate conversion after 20 min incubation) (R172K IDH2 [1]; [11]) | activity [%] (%-substrate conversion after 20 min incubation) (R172K IDH2 [2]; [12]) | activity [%] (%-substrate conversion after 20 min incubation) (WT IDH1 [3]; [13]) | activity [%] (%-substrate conversion after 20 min incubation) (WT IDH2 [4]) | activity [%] (%-substrate conversion after 20 min incubation) (R132H IDH1 [5]; [14]) | activity [%] (%-substrate conversion after 20 min incubation) (R132H IDH1 [6]; [15]) | activity [%] (%-substrate conversion after 20 min incubation) (R140Q IDH2 [7]; [16]) | activity [%] (%-substrate conversion after 20 min incubation) (R140Q IDH2 [8]; [17]) | activity [%] (%-substrate conversion after 20 min incubation) (WT IDH1 [9]) | activity [%] (%-substrate conversion after 20 min incubation) (WT IDH2 [10]) | activity [%] (%-substrate conversion after 20 min incubation) (R140Q IDH2 [7]; no 2OG, 6.0 mM test compound, 0.03 μM R140Q IDH2, 50 μM NADPH, 2OG = 100, listed as DL-4-hydroxy-2OG) | activity [%] (%-substrate conversion after 20 min incubation) (R140Q IDH2 [7]) | activity [%] (%-substrate conversion after 20 min incubation) (R172K IDH2 [1]) | activity [%] (%-substrate conversion after 20 min incubation) (R140Q IDH2 [8]) | activity [%] (%-substrate conversion after 20 min incubation) (R172K IDH2 [2]) | activity [%] (%-substrate conversion after 20 min incubation) (R132H IDH1 [5]) | activity [%] (%-substrate conversion after 20 min incubation) (R132H IDH1 [6]) | activity [%] (%-substrate conversion after 20 min incubation) (WT IDH1 [3])
1 | O=C(O)C(=O)Cc1c[nH]c2ccccc12 [indole-3-pyruvic acid] | < 10% | 87 ± 10% | 88 ± 2% | 89 ± 1% | < 10% | 81 ± 6% |  |  |  |  |  |  |  |  |  |  |  | 
2 | COC(=O)CC(C)C(=O)OC (racemic) [DL-dimethyl 2-methylsuccinate] | < 10% | 91 ± 4% | 103 ± 1% | 100 ± 2% | < 10% | 104 ± 2% | < 10% | 116 ± 4% |  |  |  |  |  |  |  |  |  | 
3 | O=C(O)C(=O)CC(O)C(=O)O (racemic) [DL-4-hydroxy-2-oxoglutaric acid] | < 10% | 98 ± 3% | 89 ± 1% | 87 ± 1% | < 10% | 82 ± 5% | 27 ± 3% | 124 ± 8% |  |  | ~20% |  |  |  |  |  |  | 
4 | CC(C)CC(=O)C(=O)O [α-ketoisocaproic acid] | < 10% | 104 ± 2% | 102 ± 2% | 102 ± 4% | < 10% | 99 ± 2% | < 10% | 106 ± 6% |  |  |  |  |  |  |  |  |  | 
5 | O=C(O)CC(C(=O)O)C(O)C(=O)O (racemic) [DL-isocitric acid] |  |  |  |  |  |  |  |  |  |  |  | < 10% | < 10% | 64 ± 3% | 71 ± 5% | < 10% | 78 ± 5% | 
6 | O=C(O)CC(=O)CC(=O)O [3-oxoglutaric acid] | < 10% | 100 ± 4% | 103 ± 3% |  | < 10% | 95 ± 2% | < 10% | 109 ± 3% |  |  |  |  |  |  |  |  |  | 
7 | O=C[C@H](O)[C@@H](O)[C@H](O)[C@H](O)C(=O)O [D-glucuronic acid] | < 10% | 101 ± 2% | 106 ± 2% |  | < 10% | 104 ± 4% | < 10% | 112 ± 7% |  |  |  |  |  |  |  |  |  | 
8 | O=C(O)/C=C(/CC(=O)O)C(=O)O [cis-aconitic acid] |  |  |  |  |  |  |  |  |  |  |  | < 10% | < 10% | 119 ± 12% | 99 ± 7% | < 10% | 100 ± 2% | 101 ± 2%
9 | CC(C)(C)CCC(CC(=O)O)C(=O)C(=O)O (racemic) [compound 5] |  | 98 ± 3% | 95±6% | 98±1% |  | 142 ± 14% |  | 146 ± 4% | < 10% | < 10% |  |  |  |  |  |  |  | 

The next lines start with results.

Row | activity [%] (%-substrate conversion after 20 min incubation) (R172K IDH2 [1]; [11]) | activity [%] (%-substrate conversion after 20 min incubation) (R172K IDH2 [2]; [12]) | activity [%] (%-substrate conversion after 20 min incubation) (WT IDH1 [3]; [13]) | activity [%] (%-substrate conversion after 20 min incubation) (WT IDH2 [4]) | activity [%] (%-substrate conversion after 20 min incubation) (R132H IDH1 [5]; [14]) | activity [%] (%-substrate conversion after 20 min incubation) (R132H IDH1 [6]; [15]) | activity [%] (%-substrate conversion after 20 min incubation) (R140Q IDH2 [7]; [16]) | activity [%] (%-substrate conversion after 20 min incubation) (R140Q IDH2 [8]; [17]) | activity [%] (%-substrate conversion after 20 min incubation) (WT IDH1 [9]) | activity [%] (%-substrate conversion after 20 min incubation) (WT IDH2 [10]) | Compound | activity [%] (%-substrate conversion after 20 min incubation) (R140Q IDH2 [7]; no 2OG, 6.0 mM test compound, 0.03 μM R140Q IDH2, 50 μM NADPH, 2OG = 100, listed as DL-4-hydroxy-2OG) | activity [%] (%-substrate conversion after 20 min incubation) (R140Q IDH2 [7]) | activity [%] (%-substrate conversion after 20 min incubation) (R172K IDH2 [1]) | activity [%] (%-substrate conversion after 20 min incubation) (R140Q IDH2 [8]) | activity [%] (%-substrate conversion after 20 min incubation) (R172K IDH2 [2]) | activity [%] (%-substrate conversion after 20 min incubation) (R132H IDH1 [5]) | activity [%] (%-substrate conversion after 20 min incubation) (R132H IDH1 [6]) | activity [%] (%-substrate conversion after 20 min incubation) (WT IDH1 [3])
10 | < 10% | 96 ± 1% | 102 ± 2% | 98 ± 3% | < 10% | 97 ± 1% | < 10% | 99 ± 5% |  |  | CSCCC(=O)C(=O)O [4-methylthio-2-oxobutyric acid] |  |  |  |  |  |  |  | 
11 | < 10% | 93 ± 5% | 94 ± 7% |  | < 10% | 83 ± 5% | < 10% | 94 ± 9% |  |  | NC(CCC(=O)O)C(=O)O (racemic) [DL-glutamic acid] |  |  |  |  |  |  |  | 
12 | < 10% | 96 ± 18% | 108 ± 8% |  | < 10% | 115 ± 8% | < 10% | 94 ± 8% |  |  | O=C(O)CCCC(=O)C(=O)O [2-oxoadipic acid] |  |  |  |  |  |  |  | 
13 |  | 97 ± 5% | 95±3% | 98±3% |  | 101 ± 7% |  | 116 ± 4% | < 10% | < 10% | CCCC(CC(=O)C(=O)O)C(=O)O (racemic) [compound 15] |  |  |  |  |  |  |  | 
